Laboratory results taken from US20120264159A1, “SCREENING SYSTEM FOR MODULATORS OF HER2 MEDIATED TRANSCRIPTION AND HER2 MODULATORS IDENTIFED THEREBY” (BUCK INSTITUTE FOR AGE RESEARCH, priority 2001, published 2012).
≈ marks a conversion by molar mass, not a printed value. Starred links: 1 amine or outer side, 2 acyl side, 3 side chain; linkers in the order of their positions; H or OH if unused. Positions of bridges follow the written chain, without caps; N, C: chain ends. Non-standard residues stand in square brackets, D forms with d. Residues, ends and D or L forms follow the SMILES beside them. Chains are numbered I, II in the order given. Actinocin(9to1) = Cc1c2oc3c(C)ccc(C(=O)[*:1])c3nc-2c(C(=O)[*:2])c(N)c1=O; NMeV = CN[C@H](C(=O)O)C(C)C; Sar = CNCC(=O)O

Tests used:
BT-474 cells = experiment: In vitro antitumor activity against ErbB2-amplified BT-474 cells; assay type: cell-based
Procedure: FIG. 9 illustrates validation of NSC-176328 antitumor selectivity. ErbB2-positive human cancer cells are 8.5-fold more sensitive to NSC-176328 than a panel of ErbB2-negative cancer cells. In vitro antitumor activity against ErbB2-amplified BT-474 cells of free and liposome- or immunoliposome-encapsulated Ellipticine (NSC-176328). 6-3-aminopropylellipticine (AE; NSC 176328) was administered to cell cultures as free drug or after being encapsulated into liposomes (L-AE) or immunoliposomes (ILS-AE); the former prevent escape and cell exposure to free AE, the latter specifically internalize into and release AE within ErbB2 overexpressing tumor cells.

[1] = tested on: NCI panel of 60 human cancer cell lines; conditions: free drug, cell lines not overexpressing ErbB2; cited from earlier work
ErbB2 transcript = experiment: Northern blot of ErbB2 transcript levels in ErbB2 overexpressing breast cancer cells; assay type: cell-based, human
Procedure: The conserved and singular DNase I hypersensitivity sites found in the proximal ErbB2 and ESX promoters (12,15) were assayed as before (12). Briefly, following culture treatment of cells, nuclei isolated by mild detergent lysis in a buffer containing 10 mM Hepes pH 7.9, 1.5 mM MgCl2, 10 mM KCl, 0.4% NP-40, 10% glycerol and 1 mM DTT. Partial DNase I digestions were carried out by varying DNase I treatment times (0-15 minutes at 37( ) at a fixed DNase I concentrations (0.5-1.0 units per 10^6 nuclei). After purifying and restricting the DNA, it was electrophoresed through 0.7% agarose gels and blotted onto nylon membranes, UV-crosslinked and hybridized with randomly ^32P-labelled ErbB2 and ESX promoter probes, as similarly performed for routine Southern blotting. For Northern blotting, total (treated vs. control) cell RNA (10 μg/sample lane) was isolated using TRIzol (Invitrogen) according to manufacturer's specifications, electrophoresed into 1% agarose-formaldehyde gels and transferred onto membranes that were then hybridized with ^32P-labelled ErbB2 and ESX cDNA probes. For transcriptional run-off assays cell nuclei were first isolated from treated and control cells as described for the DNase I studies. Elongatation of initiated nascent RNA chains was performed at 37 (C for 30 minutes using ˜5×10^6 nuclei per reaction in a buffer containing 10 mM Tris pH7.5, 2.5 mM MgCl2, 150 mM KCl, 1 mM DTT, 10% glycerol, 0.5 mM ATP, GTP and CTP, and 100 μCi of [α-^32P]UTP (800 Ci/mmol). Nuclear RNA was purified by the addition of 100 units of RNase-free DNase I (Roche) per reaction for 2 minutes followed by TRIzol processing. Radiolabelled RNA was hybridized (˜4×10^6 cpm) at 68 (C in ExpressHyb (Clontech) for 24 hours to nylon filter membranes previously slotted with 0.5 μg per slot of unlabelled ErbB2 cDNA fragments (from either the transmembrane or C-terminal domains), ESX cDNA fragments, and empty plasmid control, as we have previously described (16). Filters were washed at 64 (C in 0.2 SSC and 0.5% SDS. For Western blotting, whole-cell extracts from control vs. treated cells were boiled in sample loading buffer (1% SDS, 20% glycerol, 100 mM DTT, 50 mM Tris, pH 6.8), gel lanes loaded for constant total protein (15 μg), electrophoresed into 9% sodium dodecyl sulfacte polyacrylamide (SDS-PAGE) gels, transferred onto membranes (Immobilon-P, Millipore), and the protein-bound membranes hybridized with a primary antibody followed by a horseradish peroxidase-conjugated secondary antibody (Sigma), and specific protein bands visualized by chemiluminescent substrate (Pierce), as previously described (10).

ESX transcript = experiment: Northern blot of ESX transcript levels in SKBR3 cells; assay type: cell-based, human; conditions: 5 hours Act D
Procedure: The conserved and singular DNase I hypersensitivity sites found in the proximal ErbB2 and ESX promoters (12,15) were assayed as before (12). Briefly, following culture treatment of cells, nuclei isolated by mild detergent lysis in a buffer containing 10 mM Hepes pH 7.9, 1.5 mM MgCl2, 10 mM KCl, 0.4% NP-40, 10% glycerol and 1 mM DTT. Partial DNase I digestions were carried out by varying DNase I treatment times (0-15 minutes at 37( ) at a fixed DNase I concentrations (0.5-1.0 units per 10^6 nuclei). After purifying and restricting the DNA, it was electrophoresed through 0.7% agarose gels and blotted onto nylon membranes, UV-crosslinked and hybridized with randomly ^32P-labelled ErbB2 and ESX promoter probes, as similarly performed for routine Southern blotting. For Northern blotting, total (treated vs. control) cell RNA (10 μg/sample lane) was isolated using TRIzol (Invitrogen) according to manufacturer's specifications, electrophoresed into 1% agarose-formaldehyde gels and transferred onto membranes that were then hybridized with ^32P-labelled ErbB2 and ESX cDNA probes. For transcriptional run-off assays cell nuclei were first isolated from treated and control cells as described for the DNase I studies. […]

RO6 HER2 promoter [2] = experiment: Basal promoter activity of MDA-453 stable RO6 polyclonal populations; assay type: cell-based, human; conditions: 10 nM TPA in DMSO, 8 and 48 hr, presence of serum, compared with DMSO only
Procedure: (§1) Parental cell lines MCF-7, and MDA-453 were transfected with the construct Ro6pGL (FIG. 2) in conjunction with pcMneo construct using lipid-based transfection (Effectene) at a ratio of 20:1 reporter:selectable marker (see, FIG. 4). Monoclonal and polyclonal populations were selected in 0.5 mg/ml G418 over 2 to 4 weeks.
Reporter activity was assayed as follows: From T-150 or T-75 culture flasks, about […] cells/well were plated into a 96 well plate format for high-throughput screening. 24 hours post plating a test agent e.g. a drug from a combinatorial library, was added to the wells at various concentrations. Certain wells were used as controls (e.g. PBS or DMSO vehicle only). Replicate wells ([…] per drug concentration) were run. […] Parallel plates were run for cell viability using an MTT assay (Sigma).

RO6 HER2 promoter [3] = experiment: Basal promoter activity of MCF-7b stable RO6 populations; assay type: cell-based, human; conditions: 10 nM, 24 hours, serum-free media, clone and polyclonal populations
Procedure: as §1
(§2) Reporter activity was assayed as follows: From T-150 or T-75 culture flasks, about […] cells/well were plated into a 96 well plate format for high-throughput screening. 24 hours post plating a test agent e.g. a drug from a combinatorial library, was added to the wells at various concentrations. Certain wells were used as controls (e.g. PBS or DMSO vehicle only). Replicate wells ([…] per drug concentration) were run. 24 hours after addition of the test agent the cells were lysed, a luciferase reagent was added and activity in each well was read using a high-throughput screening plate reader (labsystems Fluoroskan). Parallel plates were run for cell viability using an MTT assay (Sigma).

ErbB2 promoter = experiment: Genomically integrated ErbB2 promoter-luciferase reporter screen in MCF/R06pGL-9 cells; assay type: cell-based, human; conditions: 24 h treatment
Procedure: as §2
A luciferase reporter plasmid (designated RO6pGL-luc) was constructed by inserting the ˜500 bp SmaI-SmaI fragment of the human ErbB2 proximal promoter (12) into the pGL3Basic plasmid driving a luciferase reporter gene, as has been described (10). R06pGL-luc and a plasmid expressing neomycin phosphotransferase were co-transfected into the MCF-7 cells (ATCC) using Effectene (Qiagen). Cells were selected for stable expression of luciferase and neomycin (G418)-resistance. […] The reaction was quantified by absorbance at 570 nm measured with a microplate reader (Molecular Devices) and the mean (±SD) optical density recorded after normalization by the vehicle treated controls. […]

**Q.** With Cc1c2cnccc2c(C)c2c1c1ccccc1n2CCCN [AE, 6-3-aminopropylellipticine] as the molecule, how does the “sensitivity of ErbB2-positive vs ErbB2-negative cancer cells” value (BT-474 cells; BT-474 vs NCI panel of ErbB2-negative cancer cells) read?
**A.** 8.5 fold

**Q.** What about the LC50 (BT-474 cells; free drug, ErbB2 overexpressing BT-474 cells) of the same molecule?
**A.** 200 µg/mL (≈ 659 µM)

**Q.** What about the “average LC50” value [1] of the same molecule?
**A.** 1700 µg/mL

**Q.** With Cc1c2oc3c(C)ccc(C(=O)N[C@@H]4C(=O)N[C@H](C(C)C)C(=O)N5CCC[C@H]5C(=O)N(C)CC(=O)N(C)[C@@H](C(C)C)C(=O)O[C@@H]4C)c3nc-2c(C(=O)N[C@@H]2C(=O)N[C@H](C(C)C)C(=O)N3CCC[C@H]3C(=O)N(C)CC(=O)N(C)[C@@H](C(C)C)C(=O)O[C@@H]2C)c(N)c1=O [Act D, actinomycin D] (I: T[dV]P[Sar][NMeV] / II: T[dV]P[Sar][NMeV]; ester I:1-I:C, II:1-II:C; linker I:N-II:N via Actinocin(9to1)) as the molecule, how does the “ErbB2 mRNA level / decay” value (ErbB2 transcript; SKBR3 cells, 5 hours treatment, TSA 0.05 or 0.40 μM, Act D 10 μg/ml) read?
**A.** only a slight reduction in ErbB2 mRNA level

**Q.** What about the “ESX mRNA level” value (ESX transcript) of the same molecule?
**A.** complete loss of the short-lived ESX mRNA

**Q.** With CCCCCCCCCCCCCC(=O)O[C@@H]1[C@@H](C)[C@@]2(O)[C@@H](C=C(CO)C[C@]3(O)C(=O)C(C)=C[C@@H]23)[C@@H]2C(C)(C)[C@]12OC(C)=O [TPA] as the molecule, how does the basal promoter activity (RO6 HER2 promoter [2]) read?
**A.** no significant effect on basal promoter activity

**Q.** And the basal promoter activity (RO6 HER2 promoter [3])?
**A.** decreased basal promoter activity

**Q.** For C[C@@H]1C[C@@H]([C@H](O)CC2CC(=O)NC(=O)C2)C(=O)[C@@H](C)C1 [cycloheximide], which “effect on TSA induced ErbB2 transcript decay” value (ErbB2 transcript; BT-474 or MDA-453 cells (data not shown)) is on record?
**A.** no ability to arrest TSA induced ErbB2 transcript decay

**Q.** What about the “ErbB2 transcript levels in control cells” value (ErbB2 transcript; SKBR3 cells, 50 μg/ml) of the same molecule?
**A.** no effect on ErbB2 transcript levels in control cells

**Q.** What about the “effect on TSA induced accelerated ErbB2 mRNA degradation” value (ErbB2 transcript; SKBR3 cells, 50 μg/ml) of the same molecule?
**A.** completely inhibited the accelerated ErbB2 mRNA degradation induced by TSA

**Q.** With CCCC(=O)[O-].[Na+] [sodium butyrate] as the molecule, how does the ErbB2 transcript levels (ErbB2 transcript; 3 mM × 24 hours (data not shown)) read?
**A.** Virtually complete elimination of ErbB2 transcript levels

**Q.** What about the “ErbB2 promoter-reporter (luciferase) activity” value (ErbB2 promoter) of the same molecule?
**A.** significantly represses
